{"source": "PubChem BioAssay AID1508612"}
{"assay": "passive permeability, PAMPA, ADME assay (AID 1508612)", "details": "pH 7.4, 30.0 min, 50.0 µM", "units": {"Papp": "×10⁻⁶ cm/s"}}
{"smiles": "c1ccc2c(NC3CCCCC3)nc(-c3ccncc3)nc2c1", "Papp": "> 1000"}
{"smiles": "O=c1ncn2nc(Sc3ccc(F)cc3F)ccc2c1-c1c(Cl)cccc1Cl", "Papp": 866}
{"smiles": "COc1cccc(CNc2ccc(S(=O)(=O)Nc3cccnc3)cc2)c1O", "Papp": 632}
{"smiles": "CC(C)CNc1ncnc2onc(-c3ccc(Cl)cc3)c12", "Papp": "> 1000"}
{"smiles": "Cc1ccnc(NC(=S)N2CCN(c3ccc(Cl)c(Cl)c3)CC2)c1", "Papp": "> 1000"}
{"smiles": "O=C(c1cccs1)c1nonc1C(=O)c1cccs1", "Papp": 806}
{"smiles": "Brc1ccc(-c2csc(N3CCCCC3)n2)cc1", "Papp": 111}
{"smiles": "Cc1ccc(NS(=O)(=O)c2cccc(C(=O)O)c2)cc1S(=O)(=O)N1CCOCC1", "Papp": 23.4}
{"smiles": "Cc1ccc(S(=O)(=O)Nc2cc(Cl)c(Cl)cc2C(=O)Nc2nc(-c3ccccc3)cs2)cc1", "Papp": 5}
{"smiles": "Cc1cc(NS(=O)(=O)c2ccc(NC(=O)Cc3ccc(F)c(Cl)c3)cc2)no1", "Papp": 10.4}
{"smiles": "Cc1ccccc1C(=O)N1CCc2cc(-c3nc(NC(=O)Cc4ccccc4)sc3C)ccc21", "Papp": "> 1000"}
{"smiles": "CCN(CC)CCNC(=O)c1c(C)[nH]c(/C=C2\\C(=O)Nc3ccc(F)cc32)c1C", "Papp": 235}
{"smiles": "Cc1csc2c1c(=O)n(O)c(=O)n2Cc1ccccc1", "Papp": 116}
{"smiles": "Nc1cc(-c2nc(Nc3ccc(F)c(F)c3)c3ccccc3n2)ccn1", "Papp": "> 1000"}
{"smiles": "COc1ccccc1CNC(=O)CCCn1nc(C)c2c(C)n(-c3ccc(C)cc3)nc2c1=O", "Papp": 604}
{"smiles": "CC[C@@H](CO)NC(=O)[C@@H]1C=C2c3cccc4c3c(cn4C)C[C@H]2N(C)C1", "Papp": 396}
{"smiles": "O=C(Nc1ccc(S(=O)(=O)Nc2nccs2)cc1)c1ccnc(-c2ccccc2)c1", "Papp": "< 1"}
{"smiles": "CC(=O)C1CCN(c2ncc(-c3cccc(N(C)C)c3)s2)CC1", "Papp": "> 1000"}
{"smiles": "CC(C)(O)Cn1c(NC(=O)c2ccc(-c3cn[nH]c3)s2)nc2cc(CN3CCOCC3)ccc21", "Papp": 368}
{"smiles": "COc1ccc(-c2csc(N3CCC(C(N)=O)CC3)n2)cc1OC", "Papp": 270}
{"smiles": "CC[C@@](C)(Nc1ccnc(-c2c[nH]c3ncccc23)n1)C(=O)NCC(F)(F)F", "Papp": 612}
{"smiles": "CC(=O)c1ccc(N[S+](=O)([O-])c2cccc(NC(=O)c3[nH]c(C)c(C(C)=O)c3C)c2)cc1", "Papp": "< 1"}
{"smiles": "Cc1noc(C)c1CN1CCNc2cc(Nc3ccccc3)ncc2C1", "Papp": 978}
{"smiles": "CN1CCc2cc3c(cc2C1)OCO3", "Papp": 316}
{"smiles": "CC(=O)c1c(C)oc2ccc(N(C(=O)Oc3ccccc3)S(=O)(=O)c3ccccc3)cc12", "Papp": "> 1000"}
{"smiles": "COc1cccc(CNC(=O)CCCn2nc(C)c3c(C)n(-c4ccc(C)cc4)nc3c2=O)c1OC", "Papp": 619}
{"smiles": "O=C(Nc1ccc(C(=O)Nc2nccs2)cc1)c1ccc2ccccc2c1", "Papp": "> 1000"}
{"smiles": "COc1ccc(-c2cc(-c3cccc4[nH]ncc34)cn3cncc23)cn1", "Papp": "< 1"}
{"smiles": "COc1cc(C2CC(=O)Nc3cc4c(cc32)OCCO4)cc(Br)c1OC", "note": "(stereo unspecified)", "Papp": 376}
{"smiles": "CN(C)c1cccc(-c2c3c(=O)n(-c4ccccc4Cl)[nH]c3cc(=O)n2C)c1", "Papp": 13.9}
{"smiles": "Fc1ccc(Nc2nc(C3=CCNCC3)nc3ccccc23)cc1F", "Papp": "> 1000"}
{"smiles": "O=C(Nc1ccc([S+](=O)([O-])Nc2nccs2)cc1)c1ccn[nH]1", "Papp": "< 1"}
{"smiles": "CCc1ccc(NC(=O)CSC2=Nc3ccccc3C3=NC(CC(=O)NCc4ccc5c(c4)OCO5)C(=O)N23)cc1", "note": "(stereo unspecified)", "Papp": "< 1"}
{"smiles": "COc1ccc(NC(=O)c2cc(-c3ccc[nH]3)n[nH]2)cc1OC", "Papp": 120}
{"smiles": "Cc1ccc(S(=O)(=O)Nc2ccc(Br)cc2C(=O)Nc2nc(-c3ccccc3)cs2)cc1", "Papp": 2.4}
{"smiles": "CC[C@@]1(O)C(=O)OCc2c1cc1n(c2=O)Cc2c-1nc1cc(F)c(C)c3c1c2[C@@H](N)CC3", "Papp": 370}
{"smiles": "Cc1ccc(-c2nc(C)c(C(=O)Nc3ccc4c(c3)C(=O)N3CCC[C@H]3C(=O)N4)s2)cc1", "Papp": 976}
{"smiles": "O=C(Nc1ccc(S(=O)(=O)Nc2nc(-c3ccccc3)cs2)cc1)c1ccc2ccccc2c1", "Papp": "< 1"}
{"smiles": "CSc1ccc(C(=O)c2[nH]c(=O)[nH]c2C)cc1", "Papp": 28.7}
{"smiles": "c1ccc2c(N3CCOCC3)nc(-c3ccncc3)nc2c1", "Papp": "> 1000"}
{"smiles": "C[C@@]12O[C@@H](C[C@]1(O)CO)n1c3ccccc3c3c4c(c5c6ccccc6n2c5c31)CNC4=O", "Papp": 7.06}
{"smiles": "O=C(c1ccco1)N1CCN(c2nc(-c3ccc(Br)cc3)cs2)CC1", "Papp": 4.09}
{"smiles": "CC(C)c1ccc(S(=O)(=O)c2cnc(SCC(=O)Nc3ccc4c(c3)OCCO4)[nH]c2=O)cc1", "Papp": 1.84}
{"smiles": "Cc1cnc(NC(=O)c2ccc(-c3cccc([N+](=O)[O-])c3)o2)s1", "Papp": 47.9}
{"smiles": "COc1ccc(OC)c(-c2cc(C(=O)N3CCN(c4ncccn4)CC3)c3ccccc3n2)c1", "Papp": "> 1000"}
{"smiles": "Cc1cc(NS(=O)(=O)c2ccc(NC(=O)Cc3ccc(Cl)c(Cl)c3)cc2)n(C)n1", "Papp": 31.7}
{"smiles": "CC(C)(C)c1ccc(-c2nc(SCCCOc3ccccc3)n3[nH]c(=O)cc3n2)cc1", "Papp": 10.1}
{"smiles": "CCOC(=O)c1ccc(NC2CCCCC2)c(N)c1", "Papp": "> 1000"}
{"smiles": "COc1ccccc1C(=O)Nc1nnc(SCc2cc(=O)c3ccccc3[nH]2)s1", "Papp": 287}
{"smiles": "O=c1cc(N2CCOCC2)oc2c1ccc1ccccc12", "Papp": 294}
{"smiles": "Nc1ccccc1OCCn1c(CCNC(=O)C2CCCCC2)nc2ccccc21", "Papp": 746}
{"smiles": "O=C(Nc1nc(-c2ccccc2)cs1)c1ccncc1NS(=O)(=O)c1ccc(C(F)(F)F)cc1", "Papp": 316}
{"smiles": "Cc1noc(C)c1C(=O)N1CCC2(CCCN(Cc3ccccc3)C2)CC1", "Papp": 449}
{"smiles": "Cc1ccc(S(=O)(=O)Nc2ncccc2C(=O)Nc2nc(-c3ccccc3)cs2)cc1", "Papp": 814}
{"smiles": "CN1CCCN(C(c2ccccc2)c2ccc(Cl)cc2)CC1", "note": "(stereo unspecified)", "Papp": 652}
{"smiles": "CN(C)C(=O)C1CCN(c2nc(-c3ccc(Br)cc3)cs2)CC1", "Papp": 583}
{"smiles": "CC(=O)c1cccc(-c2csc3ncnc(Sc4nnnn4C)c23)c1", "Papp": 239}
{"smiles": "CN1C(=O)C(=O)N2C(=C[C@]3(c4c[nH]c5ccccc45)c4ccccc4N[C@H]23)C1=O", "Papp": 209}
{"smiles": "Cc1ccc(NC(=O)NCC2CCN(Cc3cccc(Cl)c3)CC2)cc1Cl", "Papp": 746}
{"smiles": "Cc1ccc(Nc2nc(C)c(NC(=O)c3ccc(C)cc3)c(Nc3ccc(C)cc3)n2)cc1", "Papp": 291}
{"smiles": "Oc1ccc(CNc2ccc(C(F)(F)F)cc2F)c2cccnc12", "Papp": 150}
{"smiles": "COc1cc(-c2nc(-c3ccccc3)c(-c3cccs3)[nH]2)cc(OC)c1O", "Papp": 530}
{"smiles": "Cc1cccc(N2CCN(c3nc4ccccc4c4nnc(C)n34)CC2)c1C", "Papp": 887}
{"smiles": "CC(C)Oc1ccc(CNC(=O)C2CCN(C(=O)N3CCOc4ccc(Cl)cc43)CC2)cc1", "Papp": 451}
{"smiles": "COc1ccc(C)cc1Nc1c2c(nc3ccccc13)CCC2", "Papp": "> 1000"}
{"smiles": "c1ccc(-c2nc(N3CCCCCC3)c3ccccc3n2)nc1", "Papp": "> 1000"}
{"smiles": "Cc1ccc(S(=O)(=O)Nc2ccccc2C(=O)Nc2ncc(-c3ccccc3)o2)cc1", "Papp": 303}
{"smiles": "NC(=O)C1CCN(c2nc(-c3ccccc3-c3ccccc3)cs2)CC1", "Papp": 606}
{"smiles": "O=C(Nc1nc(-c2ccccc2)cs1)c1ccncc1NS(=O)(=O)c1ccccc1Cl", "Papp": "> 1000"}
{"smiles": "O=S(=O)(Nc1ccccc1)c1ccc(NCc2ccc(Br)cc2O)cc1", "Papp": 537}
{"smiles": "Cc1ccccc1C(=O)Nc1ccc2c(c1)CCCN2C(=O)c1cccs1", "Papp": 687}
{"smiles": "COc1ccc(NS(=O)(=O)c2ccc(C)c(C(=O)Nc3ccc4oc(C)nc4c3)c2)cc1", "Papp": 737}
{"smiles": "Cc1cc(S(=O)(=O)Nc2cnccc2C(=O)Nc2nc(-c3ccccc3)cs2)c(C)o1", "Papp": 768}
{"smiles": "O=C(NC1CCCc2c1[nH]c1ccc(Cl)cc21)c1ccncc1", "note": "(stereo unspecified)", "Papp": 7.6}
{"smiles": "CCOc1cc2ncc(C#N)c(Nc3ccc(OCc4ccccn4)c(Cl)c3)c2cc1NC(=O)C=CCN(C)C", "Papp": "< 1"}
{"smiles": "COc1cc(NS(=O)(=O)c2ccc(C)cc2)c(C(=O)Nc2nc(-c3ccccc3)cs2)cc1OC", "Papp": 325}
{"smiles": "COc1ccc(-c2ccc3nc(-c4cc(C)cc(C)c4)oc3c2)c(OC)c1OC", "Papp": "< 1"}
{"smiles": "NC(CO)(CO)CCc1ccc(Sc2cccc(OCc3ccccc3)c2)cc1Cl", "Papp": 210}
{"smiles": "Cc1ccc(S(=O)(=O)Nc2cnccc2C(=O)NCCc2ccccc2)cc1", "Papp": 20.3}
{"smiles": "COc1ccc(NC(=O)c2cccnc2C)cc1S(=O)(=O)Nc1ccc(Br)cc1", "Papp": 522}
{"smiles": "CC(C)Oc1ccc(-c2csc(N3CCC(C(N)=O)CC3)n2)cc1", "Papp": "> 1000"}
{"smiles": "CC(C)n1cc(-c2ccc(Oc3ccccc3)cc2)c2c(N)ncnc21", "Papp": "> 1000"}
{"smiles": "COc1ccc(-c2csc(CCn3nc(C)c4c(C(F)(F)F)cc(=O)[nH]c43)n2)cc1", "Papp": 825}
{"smiles": "O=C1C(SCCO)=C(SCCO)C(=O)c2ccccc21", "Papp": 108}
{"smiles": "COc1ccc(CCNC(=O)Cn2c(=O)c3cccn3c3ccc(F)cc32)cc1OC", "Papp": 442}
{"smiles": "O=C(Nc1ncccc1O)c1ccc(S(=O)(=O)Nc2ccccc2)cc1", "Papp": 344}
{"smiles": "O=C(Nc1ccc(Cl)cc1)C(NS(=O)(=O)c1cccs1)c1ccccc1", "note": "(stereo unspecified)", "Papp": "< 1"}
{"smiles": "Nc1c(-c2ccncc2)cc[nH]c1=O", "Papp": 3.1}
{"smiles": "COc1oc(-c2cccc3ccccc23)nc1C(=O)O", "Papp": 1.44}
{"smiles": "CCc1ccc(S(=O)(=O)Nc2cnccc2C(=O)Nc2nc(-c3ccccc3)cs2)cc1", "Papp": 300}
{"smiles": "CNC(=O)c1cc(Oc2ccc(NC(=O)Nc3ccc(Cl)c(C(F)(F)F)c3)c(F)c2)ccn1", "Papp": "< 1"}
{"smiles": "CCn1cc(C(=O)N2CCN(c3cccc(Cl)c3)CC2)c2cc(OC)c(OC)cc2c1=O", "Papp": 833}
{"smiles": "O=C(Nc1nc(-c2ccccc2)cs1)c1ccncc1NS(=O)(=O)c1ccc2c(c1)CCC2", "Papp": "> 1000"}
{"smiles": "COC(=O)C1=C(C)NC(=O)CC1C(=O)Nc1ccc(Cl)cc1", "note": "(stereo unspecified)", "Papp": 126}
{"smiles": "COc1ccc(C2(C(=O)N3CCC(n4cc(-c5nc(C)no5)nn4)CC3)CC2)cc1", "Papp": 34.9}
{"smiles": "O=C(Nc1ccccc1)C1CCN(c2nc(-c3ccc(Br)cc3)cs2)CC1", "Papp": 48.6}
{"smiles": "CC(C)N(CCCNC(=O)Nc1ccc(C(C)(C)C)cc1)C[C@H]1O[C@@H](n2ccc3c(N)ncnc32)[C@H](O)[C@@H]1O", "Papp": 10.7}
{"smiles": "CCCc1oc2ccc(NS(=O)(=O)c3ccc(OC)cc3)cc2c1C(=O)OCC", "Papp": "< 1"}
{"smiles": "CCC(=O)NC(c1ccc(OC)cc1)c1cc(Cl)c2cccnc2c1O", "note": "(stereo unspecified)", "Papp": 687}
{"smiles": "COc1ccc(-n2nc(C3CCN([S+](=O)([O-])c4cccc(C(F)(F)F)c4)CC3)[nH]c2=O)cc1", "Papp": 242}
{"smiles": "CN(C)CCN1C(=O)c2cccc3cc(N)cc(c23)C1=O", "Papp": 339}
{"smiles": "Nc1c(-c2ccccc2)cc[nH]c1=O", "Papp": 613}
{"smiles": "CCOc1ccc(CCNC(=O)c2ccnn2Cc2ccccn2)cc1OCC", "Papp": 177}
{"smiles": "Cc1csc2nc(-c3cccc(NC(=O)c4ccccc4Cl)c3)cn12", "Papp": 651}
{"smiles": "Cc1ccc(C(=O)Nc2ccc3oc(-c4cccnc4)nc3c2)cc1[N+](=O)[O-]", "Papp": 82.5}
{"smiles": "Cc1noc(/C=C/c2ccccc2F)c1S(=O)(=O)N1CCC(C(=O)Nc2ccc(C#N)cc2)CC1", "Papp": 8.58}
